Results reported in PubChem BioAssay (NCI).
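A five-concentration, 48-hour dose response in 96-well plates underlies each endpoint, interpolated linearly between surrounding concentrations. TGI is the concentration that stops growth completely.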

Experiments:
Experiment in all cases: growth of human tumour cells (NCI), 48 h
MOLT-4 leukemia = tested on: MOLT-4 leukemia
UO-31 renal = tested on: UO-31 renal
OVCAR-5 ovarian = tested on: OVCAR-5 ovarian
SK-MEL-2 melanoma = tested on: SK-MEL-2 melanoma
NCI-H522 lung = tested on: NCI-H522 lung
MCF7 breast = tested on: MCF7 breast
CCRF-CEM leukemia = tested on: CCRF-CEM leukemia
SF-295 CNS = tested on: SF-295 CNS
DU-145 prostate = tested on: DU-145 prostate
UACC-257 melanoma = tested on: UACC-257 melanoma
SNB-75 CNS = tested on: SNB-75 CNS
CAKI-1 renal = tested on: CAKI-1 renal
EKVX NSCLC = tested on: EKVX NSCLC
KM12 colon = tested on: KM12 colon
OVCAR-8 ovarian = tested on: OVCAR-8 ovarian
NCI-H23 lung = tested on: NCI-H23 lung
HOP-92 NSCLC = tested on: HOP-92 NSCLC
HOP-62 NSCLC = tested on: HOP-62 NSCLC
UACC-62 melanoma = tested on: UACC-62 melanoma
SF-539 CNS = tested on: SF-539 CNS
HCT-15 colon = tested on: HCT-15 colon
TK-10 renal = tested on: TK-10 renal
T-47D breast = tested on: T-47D breast
MALME-3M melanoma = tested on: MALME-3M melanoma
NCI-H460 lung = tested on: NCI-H460 lung
SW-620 colon = tested on: SW-620 colon
786-0 renal = tested on: 786-0 renal
HS 578T breast = tested on: HS 578T breast
HT29 colon = tested on: HT29 colon
SN12C renal = tested on: SN12C renal
PC-3 prostate = tested on: PC-3 prostate
MDA-N = tested on: MDA-N
RPMI-8226 leukemia = tested on: RPMI-8226 leukemia
SR leukemia = tested on: SR leukemia
OVCAR-3 ovarian = tested on: OVCAR-3 ovarian
BT-549 breast = tested on: BT-549 breast
LOX IMVI melanoma = tested on: LOX IMVI melanoma
A549 NSCLC = tested on: A549 NSCLC
COLO 205 colon = tested on: COLO 205 colon
A498 renal = tested on: A498 renal
K-562 leukemia = tested on: K-562 leukemia
SK-MEL-28 melanoma = tested on: SK-MEL-28 melanoma
SF-268 CNS = tested on: SF-268 CNS
M14 melanoma = tested on: M14 melanoma
MDA-MB-231 breast = tested on: MDA-MB-231 breast
ACHN renal = tested on: ACHN renal
IGROV1 ovarian = tested on: IGROV1 ovarian
SNB-19 CNS = tested on: SNB-19 CNS
HCT-116 colon = tested on: HCT-116 colon
SK-MEL-5 melanoma = tested on: SK-MEL-5 melanoma
MDA-MB-435 = tested on: MDA-MB-435
HCC-2998 colon = tested on: HCC-2998 colon
NCI/ADR-RES ovarian = tested on: NCI/ADR-RES ovarian
HL-60(TB) leukemia = tested on: HL-60(TB) leukemia
SK-OV-3 ovarian = tested on: SK-OV-3 ovarian
U251 CNS = tested on: U251 CNS
NCI-H226 lung = tested on: NCI-H226 lung
OVCAR-4 ovarian = tested on: OVCAR-4 ovarian
RXF 393 renal = tested on: RXF 393 renal

`COc1cc2c(c(O)c1OC)CC1CCC(=O)N1C2c1cccc2ccccc12` (stereo not given) was tested, and the TGI (MOLT-4 leukemia) was greater than 100 µM, the TGI (UO-31 renal) was 55.4 µM and the TGI (OVCAR-5 ovarian) was 38.2 µM. The TGI (SK-MEL-2 melanoma) was 34.9 µM, the TGI (NCI-H522 lung) was 41 µM and the TGI (MCF7 breast) was greater than 100 µM. For the same molecule, the TGI (CCRF-CEM leukemia) was greater than 100 µM, the TGI (SF-295 CNS) was 41.1 µM and the TGI (DU-145 prostate) was 37.3 µM. For the same molecule, the TGI (UACC-257 melanoma) was 61 µM, the TGI (SNB-75 CNS) was greater than 100 µM and the TGI (CAKI-1 renal) was 47.1 µM. For the same molecule, the TGI (EKVX NSCLC) was 54.5 µM, the TGI (KM12 colon) was 55.4 µM and the TGI (OVCAR-8 ovarian) was greater than 100 µM. The TGI (NCI-H23 lung) was 67.6 µM, the TGI (HOP-92 NSCLC) was 45.7 µM and the TGI (HOP-62 NSCLC) was 41.8 µM. For the same molecule, the TGI (UACC-62 melanoma) was 30.9 µM, the TGI (SF-539 CNS) was 30.6 µM and the TGI (HCT-15 colon) was 82.9 µM. The TGI (TK-10 renal) was greater than 100 µM, the TGI (T-47D breast) was 48.4 µM and the TGI (MALME-3M melanoma) was 44.5 µM. It also gave a TGI (NCI-H460 lung) of 61.1 µM, a TGI (SW-620 colon) of 73 µM and a TGI (786-0 renal) of 94.5 µM. The TGI (HS 578T breast) was 69.3 µM, the TGI (HT29 colon) was 34.5 µM and the TGI (SN12C renal) was 34.2 µM. The TGI (PC-3 prostate) was 43.7 µM, the TGI (MDA-N) was 31.7 µM and the TGI (RPMI-8226 leukemia) was greater than 100 µM. For the same molecule, the TGI (SR leukemia) was greater than 100 µM, the TGI (OVCAR-3 ovarian) was 44.6 µM and the TGI (BT-549 breast) was 41.6 µM. For the same molecule, the TGI (LOX IMVI melanoma) was 52.4 µM, the TGI (A549 NSCLC) was greater than 100 µM and the TGI (COLO 205 colon) was 28.9 µM. For the same molecule, the TGI (A498 renal) was 68.8 µM, the TGI (K-562 leukemia) was greater than 100 µM and the TGI (SK-MEL-28 melanoma) was 52.2 µM. For the same molecule, the TGI (SF-268 CNS) was 78.7 µM, the TGI (M14 melanoma) was 33.8 µM and the TGI (MDA-MB-231 breast) was 33 µM. For the same molecule, the TGI (ACHN renal) was greater than 100 µM, the TGI (IGROV1 ovarian) was 59.3 µM and the TGI (SNB-19 CNS) was 45 µM. For the same molecule, the TGI (HCT-116 colon) was 45.3 µM, the TGI (SK-MEL-5 melanoma) was 26.2 µM and the TGI (MDA-MB-435) was 40.4 µM. It also gave a TGI (HCC-2998 colon) of 33.3 µM, a TGI (NCI/ADR-RES ovarian) of 53.7 µM and a TGI (HL-60(TB) leukemia) greater than 100 µM. For the same molecule, the TGI (SK-OV-3 ovarian) was greater than 100 µM and the TGI (U251 CNS) was 42.9 µM.
Work on `O=C(CCC=C(S(=O)(=O)c1ccccc1)S(=O)(=O)c1ccccc1)c1ccccc1` yielded a TGI (MOLT-4 leukemia) greater than 100 µM, a TGI (UO-31 renal) of 18.3 µM and a TGI (OVCAR-5 ovarian) of 24 µM. For the same molecule, the TGI (SK-MEL-2 melanoma) was 9.7 µM, the TGI (NCI-H522 lung) was 9.45 µM and the TGI (MCF7 breast) was 17.1 µM. The TGI (SF-295 CNS) was 60.9 µM, the TGI (DU-145 prostate) was 25.4 µM and the TGI (UACC-257 melanoma) was 23.3 µM. The TGI (SNB-75 CNS) was 9.57 µM, the TGI (CAKI-1 renal) was 31.1 µM and the TGI (EKVX NSCLC) was 30.5 µM. It also gave a TGI (KM12 colon) greater than 100 µM, a TGI (OVCAR-8 ovarian) of 16.7 µM and a TGI (HOP-92 NSCLC) of 30.6 µM. For the same molecule, the TGI (HOP-62 NSCLC) was 40.3 µM, the TGI (UACC-62 melanoma) was 19.7 µM and the TGI (SF-539 CNS) was 6.57 µM. It also gave a TGI (HCT-15 colon) of 20.8 µM, a TGI (TK-10 renal) of 19.3 µM and a TGI (T-47D breast) of 44.4 µM. For the same molecule, the TGI (MALME-3M melanoma) was 17.9 µM, the TGI (NCI-H460 lung) was 33.8 µM and the TGI (SW-620 colon) was 15 µM. For the same molecule, the TGI (NCI-H226 lung) was 37.3 µM, the TGI (786-0 renal) was 11.8 µM and the TGI (HS 578T breast) was 31 µM. The TGI (HT29 colon) was 17.5 µM, the TGI (SN12C renal) was 13.1 µM and the TGI (PC-3 prostate) was 14.2 µM. It also gave a TGI (MDA-N) of 14.8 µM, a TGI (OVCAR-4 ovarian) of 63.6 µM and a TGI (SR leukemia) of 82.6 µM. For the same molecule, the TGI (OVCAR-3 ovarian) was 17.4 µM, the TGI (BT-549 breast) was 18.2 µM and the TGI (LOX IMVI melanoma) was 10.3 µM. The TGI (A549 NSCLC) was 49.6 µM, the TGI (COLO 205 colon) was 19.8 µM and the TGI (RXF 393 renal) was 20 µM. The TGI (A498 renal) was 31.7 µM, the TGI (K-562 leukemia) was 80.4 µM and the TGI (SK-MEL-28 melanoma) was 34.6 µM. For the same molecule, the TGI (SF-268 CNS) was 18.8 µM, the TGI (M14 melanoma) was 20.9 µM and the TGI (MDA-MB-231 breast) was 22.9 µM. The TGI (ACHN renal) was 20 µM, the TGI (IGROV1 ovarian) was 31 µM and the TGI (SNB-19 CNS) was 28.4 µM. It also gave a TGI (HCT-116 colon) of 13.9 µM, a TGI (SK-MEL-5 melanoma) of 19.8 µM and a TGI (MDA-MB-435) of 24.3 µM. It also gave a TGI (HCC-2998 colon) of 21.7 µM, a TGI (NCI/ADR-RES ovarian) of 25.8 µM and a TGI (HL-60(TB) leukemia) of 5.2 µM. It also gave a TGI (SK-OV-3 ovarian) greater than 100 µM and a TGI (U251 CNS) of 15.6 µM.
`O=S(=O)(NNc1ccccc1)c1ccccc1` showed a TGI (MOLT-4 leukemia) of 99 µM, a TGI (UO-31 renal) of 25.7 µM and a TGI (OVCAR-5 ovarian) greater than 100 µM. For the same molecule, the TGI (SK-MEL-2 melanoma) was 44.3 µM, the TGI (NCI-H522 lung) was 31.1 µM and the TGI (MCF7 breast) was 28.8 µM. The TGI (CCRF-CEM leukemia) was 50 µM, the TGI (SF-295 CNS) was 25.4 µM and the TGI (DU-145 prostate) was 34.3 µM. It also gave a TGI (UACC-257 melanoma) greater than 100 µM, a TGI (SNB-75 CNS) greater than 100 µM and a TGI (CAKI-1 renal) of 13.5 µM. It also gave a TGI (EKVX NSCLC) of 31.9 µM, a TGI (KM12 colon) of 18.1 µM and a TGI (OVCAR-8 ovarian) greater than 100 µM. The TGI (NCI-H23 lung) was greater than 100 µM, the TGI (HOP-92 NSCLC) was 55.4 µM and the TGI (HOP-62 NSCLC) was 32.7 µM. For the same molecule, the TGI (UACC-62 melanoma) was 30 µM, the TGI (SF-539 CNS) was greater than 100 µM and the TGI (HCT-15 colon) was greater than 100 µM. It also gave a TGI (TK-10 renal) greater than 100 µM, a TGI (T-47D breast) of 51.5 µM and a TGI (NCI-H460 lung) of 21.2 µM. The TGI (SW-620 colon) was greater than 100 µM, the TGI (NCI-H226 lung) was 18.5 µM and the TGI (786-0 renal) was greater than 100 µM. For the same molecule, the TGI (HS 578T breast) was greater than 100 µM, the TGI (HT29 colon) was 27.2 µM and the TGI (SN12C renal) was 18.7 µM. For the same molecule, the TGI (PC-3 prostate) was 22.9 µM, the TGI (MDA-N) was 25.3 µM and the TGI (RPMI-8226 leukemia) was 46.4 µM. For the same molecule, the TGI (OVCAR-4 ovarian) was 31.5 µM, the TGI (SR leukemia) was 53.1 µM and the TGI (OVCAR-3 ovarian) was 58.7 µM. For the same molecule, the TGI (BT-549 breast) was 44.2 µM, the TGI (LOX IMVI melanoma) was 13.6 µM and the TGI (A549 NSCLC) was 23.5 µM. For the same molecule, the TGI (COLO 205 colon) was 22.3 µM, the TGI (RXF 393 renal) was 38.5 µM and the TGI (A498 renal) was greater than 100 µM. For the same molecule, the TGI (K-562 leukemia) was 39.5 µM, the TGI (SK-MEL-28 melanoma) was greater than 100 µM and the TGI (SF-268 CNS) was greater than 100 µM. For the same molecule, the TGI (M14 melanoma) was 17.3 µM, the TGI (MDA-MB-231 breast) was 17.5 µM and the TGI (ACHN renal) was 15.8 µM. The TGI (IGROV1 ovarian) was 32.7 µM, the TGI (SNB-19 CNS) was greater than 100 µM and the TGI (HCT-116 colon) was 29.4 µM. The TGI (SK-MEL-5 melanoma) was 12.7 µM, the TGI (MDA-MB-435) was 21.3 µM and the TGI (HCC-2998 colon) was greater than 100 µM. The TGI (NCI/ADR-RES ovarian) was 36.1 µM, the TGI (HL-60(TB) leukemia) was 13.5 µM and the TGI (SK-OV-3 ovarian) was greater than 100 µM. It also gave a TGI (U251 CNS) of 33.9 µM.
